Measured values taken from the kinase profiling compilation of Christmann-Franck et al. (2016).

Tests used:
Assay in all cases: radiometric filter-binding kinase assay, Kinase HotSpot
Settings in all cases: compound 0.5 µM; ATP 10 µM
NEK9 (human) = NEK9 (human) (UniProt Q8TD19)
IRAK4 (human) = IRAK4 (human) (UniProt Q9NWZ3)
EPHA8 (human) = EPHA8 (human) (UniProt P29322)
PTK6 (human) = PTK6 (human) (UniProt Q13882)
PHKG2 (human) = PHKG2 (human) (UniProt P15735)
CDK9 CCNK (human) = CDK9 CCNK (human) (UniProt O75909+P50750)
Sequence of CDK9 CCNK (human) (O75909 whole entry, looked up): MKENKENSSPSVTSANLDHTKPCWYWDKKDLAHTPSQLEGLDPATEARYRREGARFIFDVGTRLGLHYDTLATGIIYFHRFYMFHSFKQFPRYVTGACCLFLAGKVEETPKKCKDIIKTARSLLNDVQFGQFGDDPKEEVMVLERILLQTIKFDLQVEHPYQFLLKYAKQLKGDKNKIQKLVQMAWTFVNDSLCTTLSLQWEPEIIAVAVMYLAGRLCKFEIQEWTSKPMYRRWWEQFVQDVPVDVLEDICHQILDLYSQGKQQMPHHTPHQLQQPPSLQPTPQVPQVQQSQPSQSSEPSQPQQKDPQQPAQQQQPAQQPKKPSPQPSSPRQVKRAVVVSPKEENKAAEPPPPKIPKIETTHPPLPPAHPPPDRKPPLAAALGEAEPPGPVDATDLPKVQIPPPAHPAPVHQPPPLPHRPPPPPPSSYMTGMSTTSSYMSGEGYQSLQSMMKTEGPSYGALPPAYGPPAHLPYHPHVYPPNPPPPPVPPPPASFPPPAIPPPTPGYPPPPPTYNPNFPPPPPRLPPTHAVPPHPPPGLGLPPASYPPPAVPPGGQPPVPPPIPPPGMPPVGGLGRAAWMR
Sequence of CDK9 CCNK (human) (P50750 whole entry, looked up): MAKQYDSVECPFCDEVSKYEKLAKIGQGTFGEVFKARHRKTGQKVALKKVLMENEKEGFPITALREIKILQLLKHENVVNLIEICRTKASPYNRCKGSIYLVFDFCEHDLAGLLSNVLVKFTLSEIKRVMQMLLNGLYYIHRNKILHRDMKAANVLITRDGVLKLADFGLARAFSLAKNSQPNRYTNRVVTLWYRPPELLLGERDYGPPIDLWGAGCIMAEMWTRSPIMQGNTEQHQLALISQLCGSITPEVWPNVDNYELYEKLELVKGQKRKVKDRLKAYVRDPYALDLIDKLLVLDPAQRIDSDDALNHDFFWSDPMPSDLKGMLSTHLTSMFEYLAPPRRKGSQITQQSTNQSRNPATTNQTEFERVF

WNK3 (human) = WNK3 (human) (UniProt Q9BYP7)
PRKCE (human) = PRKCE (human) (UniProt Q02156)
CSNK1G1 (human) = CSNK1G1 (human) (UniProt Q9HCP0)
LTK (human) = LTK (human) (UniProt P29376)
LRRK2 (human) = LRRK2 (human) (UniProt Q5S007)
STK16 (human) = STK16 (human) (UniProt O75716)
CAMK4 (human) = CAMK4 (human) (UniProt Q16566)
PIM1 (human) = PIM1 (human) (UniProt P11309)
CSF1R (human) = CSF1R (human) (UniProt P07333)
EPHA7 (human) = EPHA7 (human) (UniProt Q15375)
CSNK2A2 (human) = CSNK2A2 (human) (UniProt P19784)
Sequence of CSNK2A2 (human) (P19784 whole entry, looked up): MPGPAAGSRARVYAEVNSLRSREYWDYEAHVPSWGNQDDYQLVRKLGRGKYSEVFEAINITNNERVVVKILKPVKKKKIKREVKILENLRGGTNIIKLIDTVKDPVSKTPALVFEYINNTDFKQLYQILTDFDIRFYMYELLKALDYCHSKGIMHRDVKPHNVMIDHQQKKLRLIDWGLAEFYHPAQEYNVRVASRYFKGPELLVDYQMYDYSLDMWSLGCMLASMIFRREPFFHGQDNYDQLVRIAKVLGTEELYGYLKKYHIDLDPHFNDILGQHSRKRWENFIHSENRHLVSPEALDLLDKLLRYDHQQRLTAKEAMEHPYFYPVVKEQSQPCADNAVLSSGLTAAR

TSSK1B (human) = TSSK1B (human) (UniProt Q9BXA7)
Sequence of TSSK1B (human) (Q9BXA7 whole entry, looked up): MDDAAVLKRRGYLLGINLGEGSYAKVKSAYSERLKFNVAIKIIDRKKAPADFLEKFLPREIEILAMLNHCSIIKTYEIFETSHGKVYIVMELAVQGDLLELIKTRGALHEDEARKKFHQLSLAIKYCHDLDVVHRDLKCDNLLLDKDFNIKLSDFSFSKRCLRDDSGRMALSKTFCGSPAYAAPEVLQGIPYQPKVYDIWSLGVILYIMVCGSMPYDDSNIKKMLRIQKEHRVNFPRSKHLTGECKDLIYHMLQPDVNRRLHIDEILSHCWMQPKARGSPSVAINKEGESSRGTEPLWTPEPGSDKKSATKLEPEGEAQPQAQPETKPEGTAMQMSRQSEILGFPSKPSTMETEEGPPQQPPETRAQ

NTRK1 (human) = NTRK1 (human) (UniProt P04629)
Sequence of NTRK1 (human) (P04629 whole entry, looked up): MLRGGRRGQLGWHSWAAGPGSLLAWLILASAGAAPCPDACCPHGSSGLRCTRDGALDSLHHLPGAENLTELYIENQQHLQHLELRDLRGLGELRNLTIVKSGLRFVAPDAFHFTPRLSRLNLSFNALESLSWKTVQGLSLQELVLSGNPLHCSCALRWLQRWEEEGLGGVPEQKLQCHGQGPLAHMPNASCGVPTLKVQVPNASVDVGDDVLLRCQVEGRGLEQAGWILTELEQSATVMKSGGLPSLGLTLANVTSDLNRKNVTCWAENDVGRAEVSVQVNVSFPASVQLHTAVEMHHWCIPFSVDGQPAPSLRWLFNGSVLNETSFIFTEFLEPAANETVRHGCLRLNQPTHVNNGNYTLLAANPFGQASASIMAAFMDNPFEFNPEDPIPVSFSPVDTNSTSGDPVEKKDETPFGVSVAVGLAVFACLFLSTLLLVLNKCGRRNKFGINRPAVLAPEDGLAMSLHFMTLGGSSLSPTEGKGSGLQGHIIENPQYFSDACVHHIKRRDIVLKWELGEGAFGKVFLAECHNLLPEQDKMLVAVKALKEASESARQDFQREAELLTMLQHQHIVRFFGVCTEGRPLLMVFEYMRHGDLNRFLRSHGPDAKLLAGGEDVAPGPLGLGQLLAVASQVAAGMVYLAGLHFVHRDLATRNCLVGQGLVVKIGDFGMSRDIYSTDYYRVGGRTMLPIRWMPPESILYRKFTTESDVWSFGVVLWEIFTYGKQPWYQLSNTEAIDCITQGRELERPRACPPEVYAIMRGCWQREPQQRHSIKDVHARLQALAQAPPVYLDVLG

PKN2 (human) = PKN2 (human) (UniProt Q16513)
PRKD3 (human) = PRKD3 (human) (UniProt O94806)
MAP3K7 TAB1 (human) = MAP3K7 TAB1 (human) (UniProt O43318+Q15750)
ULK2 (human) = ULK2 (human) (UniProt Q8IYT8)
Sequence of ULK2 (human) (Q8IYT8 whole entry, looked up): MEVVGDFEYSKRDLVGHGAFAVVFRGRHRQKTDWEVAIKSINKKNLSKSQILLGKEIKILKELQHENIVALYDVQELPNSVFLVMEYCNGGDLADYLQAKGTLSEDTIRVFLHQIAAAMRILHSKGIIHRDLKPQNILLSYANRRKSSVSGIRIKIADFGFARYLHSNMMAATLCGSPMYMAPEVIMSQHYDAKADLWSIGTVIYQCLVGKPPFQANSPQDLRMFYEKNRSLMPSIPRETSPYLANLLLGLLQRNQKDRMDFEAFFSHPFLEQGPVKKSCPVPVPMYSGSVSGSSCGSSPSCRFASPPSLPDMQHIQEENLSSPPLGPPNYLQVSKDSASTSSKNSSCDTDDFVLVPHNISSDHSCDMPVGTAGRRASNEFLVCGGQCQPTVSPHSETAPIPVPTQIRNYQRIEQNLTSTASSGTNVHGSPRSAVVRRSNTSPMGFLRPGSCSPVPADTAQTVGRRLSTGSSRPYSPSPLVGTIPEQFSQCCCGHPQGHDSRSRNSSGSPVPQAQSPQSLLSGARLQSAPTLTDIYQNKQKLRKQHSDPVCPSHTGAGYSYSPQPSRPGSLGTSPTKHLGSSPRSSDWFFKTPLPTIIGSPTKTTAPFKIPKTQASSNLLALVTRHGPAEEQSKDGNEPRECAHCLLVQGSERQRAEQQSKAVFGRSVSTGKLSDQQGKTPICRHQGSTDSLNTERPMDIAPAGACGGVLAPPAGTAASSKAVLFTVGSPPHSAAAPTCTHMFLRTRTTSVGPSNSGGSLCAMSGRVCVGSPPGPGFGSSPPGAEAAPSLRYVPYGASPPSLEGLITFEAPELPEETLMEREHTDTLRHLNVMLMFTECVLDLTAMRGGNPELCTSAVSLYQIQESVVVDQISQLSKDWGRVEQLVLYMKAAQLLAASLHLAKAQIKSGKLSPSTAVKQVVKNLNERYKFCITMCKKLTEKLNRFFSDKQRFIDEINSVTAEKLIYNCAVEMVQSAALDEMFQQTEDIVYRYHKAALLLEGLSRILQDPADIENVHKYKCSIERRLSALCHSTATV

CDK3 CCNE1 (human) = CDK3 CCNE1 (human) (UniProt Q00526+P24864)
WEE1 (human) = WEE1 (human) (UniProt P30291)
FLT3 (human) = FLT3 (human) (UniProt P36888)
STK3 (human) = STK3 (human) (UniProt Q13188)
EPHB4 (human) = EPHB4 (human) (UniProt P54760)
CDK4 CCND1 (human) = CDK4 CCND1 (human) (UniProt P24385+P11802)
Sequence of CDK4 CCND1 (human) (P11802 whole entry, looked up): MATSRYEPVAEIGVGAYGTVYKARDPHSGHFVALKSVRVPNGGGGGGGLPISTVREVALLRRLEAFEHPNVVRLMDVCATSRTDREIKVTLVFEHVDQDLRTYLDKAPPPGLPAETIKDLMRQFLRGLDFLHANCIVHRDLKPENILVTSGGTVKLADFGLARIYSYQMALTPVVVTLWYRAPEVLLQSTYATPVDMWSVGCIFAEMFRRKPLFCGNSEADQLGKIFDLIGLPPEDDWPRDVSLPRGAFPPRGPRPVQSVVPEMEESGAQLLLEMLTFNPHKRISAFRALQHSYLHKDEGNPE
Sequence of CDK4 CCND1 (human) (P24385 whole entry, looked up): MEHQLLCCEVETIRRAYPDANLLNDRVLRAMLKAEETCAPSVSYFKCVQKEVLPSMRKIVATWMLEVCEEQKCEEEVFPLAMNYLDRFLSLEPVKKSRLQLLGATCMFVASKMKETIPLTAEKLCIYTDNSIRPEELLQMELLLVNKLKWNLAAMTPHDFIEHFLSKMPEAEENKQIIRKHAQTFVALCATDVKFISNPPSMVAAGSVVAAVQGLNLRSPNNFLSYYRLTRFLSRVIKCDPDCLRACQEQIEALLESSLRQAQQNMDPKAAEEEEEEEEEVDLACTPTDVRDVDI

MAPK9 (human) = MAPK9 (human) (UniProt P45984)
CHEK1 (human) = CHEK1 (human) (UniProt O14757)
EPHB3 (human) = EPHB3 (human) (UniProt P54753)
[1] = system: MKNK1 (human), Q9BUB5 [T385D; 165-205 del]
PRKACA (human) = PRKACA (human) (UniProt P17612)
NEK1 (human) = NEK1 (human) (UniProt Q96PY6)
IKBKE (human) = IKBKE (human) (UniProt Q14164)
AKT2 (human) = AKT2 (human) (UniProt P31751)
PAK2 (human) = PAK2 (human) (UniProt Q13177)

Sequence of PHKG2 (human) (P15735 whole entry, looked up): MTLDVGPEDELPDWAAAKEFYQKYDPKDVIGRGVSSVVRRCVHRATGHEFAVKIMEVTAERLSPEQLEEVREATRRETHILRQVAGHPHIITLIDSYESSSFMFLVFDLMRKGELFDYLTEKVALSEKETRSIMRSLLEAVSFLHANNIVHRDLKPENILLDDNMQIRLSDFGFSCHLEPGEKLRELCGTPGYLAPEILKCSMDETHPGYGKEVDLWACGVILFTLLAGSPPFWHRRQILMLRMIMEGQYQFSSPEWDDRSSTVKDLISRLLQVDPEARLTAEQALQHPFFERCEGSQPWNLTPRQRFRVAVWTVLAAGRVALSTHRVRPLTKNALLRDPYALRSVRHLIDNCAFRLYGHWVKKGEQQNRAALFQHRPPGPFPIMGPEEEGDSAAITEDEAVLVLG
Sequence of PTK6 (human) (Q13882 whole entry, looked up): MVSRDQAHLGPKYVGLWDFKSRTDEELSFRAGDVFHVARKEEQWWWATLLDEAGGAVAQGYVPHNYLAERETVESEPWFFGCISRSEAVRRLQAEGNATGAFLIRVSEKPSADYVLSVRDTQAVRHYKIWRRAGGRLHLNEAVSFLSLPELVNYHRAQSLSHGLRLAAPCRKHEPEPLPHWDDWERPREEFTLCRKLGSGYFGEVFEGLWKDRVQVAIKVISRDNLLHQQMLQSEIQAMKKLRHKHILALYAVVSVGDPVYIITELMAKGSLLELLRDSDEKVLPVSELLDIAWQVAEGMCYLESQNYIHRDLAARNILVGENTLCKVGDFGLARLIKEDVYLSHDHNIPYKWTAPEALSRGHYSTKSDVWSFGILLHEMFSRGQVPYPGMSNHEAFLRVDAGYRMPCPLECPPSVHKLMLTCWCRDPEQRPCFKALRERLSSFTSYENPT

SMILES	residual activity (NEK9 (human)) [%]	residual activity (IRAK4 (human)) [%]	residual activity (EPHA8 (human)) [%]	residual activity (PTK6 (human)) [%]	residual activity (PHKG2 (human)) [%]	residual activity (CDK9 CCNK (human)) [%]	residual activity (WNK3 (human)) [%]	residual activity (PRKCE (human)) [%]	residual activity (CSNK1G1 (human)) [%]	residual activity (LTK (human)) [%]	residual activity (LRRK2 (human)) [%]	residual activity (STK16 (human)) [%]	residual activity (CAMK4 (human)) [%]	residual activity (PIM1 (human)) [%]	residual activity (CSF1R (human)) [%]	residual activity (EPHA7 (human)) [%]	residual activity (CSNK2A2 (human)) [%]	residual activity (TSSK1B (human)) [%]	residual activity (NTRK1 (human)) [%]	residual activity (PKN2 (human)) [%]	further results
O=C1NC(=O)c2c1c1c3ccccc3[nH]c1n1cncc21	77.4	84.8	97.5	89	108	83.8	79.1	84.9	68.4	80.8	61.3	70.9	89.8	1.43	64.9	78.8	53.4	84.4	89.8	95.5	residual activity (PRKD3 (human)): 47.7%; residual activity (MAP3K7 TAB1 (human)): 63.4%; residual activity (ULK2 (human)): 95.5%; residual activity (CDK3 CCNE1 (human)): 76.7%; residual activity (WEE1 (human)): 94.7%; residual activity (FLT3 (human)): 9.86%; residual activity (STK3 (human)): 41%; residual activity (EPHB4 (human)): 105%; residual activity (CDK4 CCND1 (human)): 86%; residual activity (MAPK9 (human)): 65.3%; residual activity (CHEK1 (human)): 24.6%; residual activity (EPHB3 (human)): 79.7%; residual activity [1]: 56.3%; residual activity (PRKACA (human)): 98.2%; residual activity (NEK1 (human)): 75.2%; residual activity (IKBKE (human)): 103%; residual activity (AKT2 (human)): 121%; residual activity (PAK2 (human)): 99%
Cn1c2ccccc2c2c3c(c4c5ccccc5n(CCC#N)c4c21)CNC3=O	96.9	63.5	91.7	38.7	8.4	55.2	93.1	58.5	93.3	8.79	30.5	81.1	88.1	36.1	84.1	62.6	104	10.1	1.64	67.7	residual activity (PRKD3 (human)): 7.3%; residual activity (MAP3K7 TAB1 (human)): 25.4%; residual activity (ULK2 (human)): 92.9%; residual activity (CDK3 CCNE1 (human)): 65.2%; residual activity (WEE1 (human)): 85.4%; residual activity (FLT3 (human)): 5.27%; residual activity (STK3 (human)): 3.07%; residual activity (EPHB4 (human)): 96.3%; residual activity (CDK4 CCND1 (human)): 27.5%; residual activity (MAPK9 (human)): 86%; residual activity (CHEK1 (human)): 7.95%; residual activity (EPHB3 (human)): 87.2%; residual activity [1]: 75.2%; residual activity (PRKACA (human)): 83.7%; residual activity (NEK1 (human)): 62.9%; residual activity (IKBKE (human)): 69.4%; residual activity (AKT2 (human)): 110%; residual activity (PAK2 (human)): 91.7%
CCCCc1c(-c2ccc(OC)cc2)[nH]c2nccnc12	106	163	103	30.4	106	56.9	88.4	102	93.3	83.9	83	58.7	97.6	97	37.7	98	94.1	65.3	109	88.6	residual activity (PRKD3 (human)): 88.5%; residual activity (MAP3K7 TAB1 (human)): 90.6%; residual activity (ULK2 (human)): 108%; residual activity (CDK3 CCNE1 (human)): 83.8%; residual activity (WEE1 (human)): 85.9%; residual activity (FLT3 (human)): 47.8%; residual activity (STK3 (human)): 87%; residual activity (EPHB4 (human)): 89.5%; residual activity (CDK4 CCND1 (human)): 60.4%; residual activity (MAPK9 (human)): 84.8%; residual activity (CHEK1 (human)): 93.1%; residual activity (EPHB3 (human)): 99.8%; residual activity [1]: 97.7%; residual activity (PRKACA (human)): 96.6%; residual activity (NEK1 (human)): 86.9%; residual activity (IKBKE (human)): 100%; residual activity (AKT2 (human)): 93.8%; residual activity (PAK2 (human)): 97.5%
